Where two headings read alike, the source gives them in different places.
Experiments:
Test in all cases: Cytotoxicity assay of camptothecin derivative toxins (Example A')
Format in all cases: cell-based
[1] = tested on: human ovarian cancer cell line SK-OV-3; conditions: read-out: IC50 (nM) SK-OV-3
Method: (§1) The camptothecin derivatives of the Examples of the present application were serially diluted with DMSO and the corresponding cell culture medium, and were added into a white-walled 96-well plate. Tumor cells (human ovarian cancer cell line SK-OV-3; human colon cancer cell line HCT116; human lung adenocarcinoma cell line A549; human lung adenocarcinoma cell line NCI-H441; human oral epidermoid carcinoma cell line KB) in logarithmic growth phase were digested and adjusted to a density of approximately 3.33×10^4 cells/mL. The cells were plated at 90 µL/well on the white-walled 96-well plate that was pre-loaded with the samples, followed by incubation at 37° C. in a 5% CO2 incubator for 3 days. The growth inhibitory effect of the small molecule compounds on tumor cells was evaluated by the Cell Titer Turbo 2.0 Luminescent Cell Viability Assay (Damas life, RA-GL11). Relative light unit (RLU) values were read from the cell culture plates using a microplate reader. Experimental data were analyzed with GraphPad Prism 8.0 software to calculate IC50 values.

[2] = tested on: human colon cancer cell line HCT116; conditions: read-out: IC50 (nM) HCT116
Method: as §1

[3] = tested on: human lung adenocarcinoma cell line A549; conditions: read-out: IC50 (nM) A549
Method: as §1

[4] = tested on: human lung adenocarcinoma cell line NCI-H441; conditions: read-out: IC50 (nM) NCI-H441
Method: as §1

[5] = Homo sapiens, SK-OV-3, 72 h, Example A', 3 days incubation
[6] = Homo sapiens, HCT-116, 72 h, Example A', 3 days incubation
[7] = Homo sapiens, A549, 72 h, Example A', 3 days incubation
[8] = Homo sapiens, NCI-H441, 72 h, Example A', 3 days incubation

Row | SMILES | IC50 [1, 5] | IC50 [2, 6] | IC50 [3, 7] | IC50 [4, 8] | further results
1 | CC[C@@]1(O)C(=O)OCc2c1cc1n(c2=O)Cc2c-1nc1cc(F)c(C)cc1c2NCCO [STI-F5, (S)-4-ethyl-8-fluoro-4-hydroxy-11-((2-hydroxyethyl)amino)-9-methyl-1,12-dihydro-14H-pyrano[3′,4′:6,7]indolizino[1,2-b]quinoline-3,14(4H)-dione] | 16.9 nM | 19 nM | 387 nM | 32.3 nM | –
2 | CC[C@@]1(O)C(=O)OCc2c1cc1n(c2=O)Cc2c-1nc1cc(F)c(C)cc1c2NC/C=C/CO [STI-F8, (S,E)-4-ethyl-8-fluoro-4-hydroxy-11-((4-hydroxybut-2-en-1-yl)amino)-9-methyl-1,12-dihydro-14H-pyrano[3′,4′:6,7]indolizino[1,2-b]quinoline-3,14(4H)-dione] | 12.3 nM | 11.4 nM | 278 nM | 24.9 nM | –
3 | CC[C@@]1(O)C(=O)OCc2c1cc1n(c2=O)Cc2c-1nc1cc(F)c(C)cc1c2N1CCC(CO)CC1 [STI-F14, (S)-4-ethyl-8-fluoro-4-hydroxy-11-(4-(hydroxymethyl)piperidin-1-yl)-9-methyl-1,12-dihydro-14H-pyrano[3′,4′:6,7]indolizino[1,2-b]quinoline-3,14(4H)-dione] | – | 12.4 nM | 156 nM | 11.1 nM | –
4 | CC[C@@]1(O)C(=O)OCc2c1cc1n(c2=O)Cc2c-1nc1cc(F)c(C)cc1c2N[C@H]1CC[C@H](CO)CC1 [STI-F15, (S)-4-ethyl-8-fluoro-4-hydroxy-11-(((1r,4S)-4-(hydroxymethyl)cyclohexyl)amino)-9-methyl-1,12-dihydro-14H-pyrano[3′,4′:6,7]indolizino[1,2-b]quinoline-3,14(4H)-dione] | – | – | – | – | IC50 ([1]; Example A', 3 days incubation): 28.7 nM; IC50 ([2]; Example A', 3 days incubation): 22.6 nM; IC50 ([3]; Example A', 3 days incubation): 542 nM; IC50 ([4]; Example A', 3 days incubation): 50.9 nM
5 | CC[C@@]1(O)C(=O)OCc2c1cc1n(c2=O)Cc2c-1nc1cc(F)c(C)cc1c2NCCCCCO [STI-F17, (S)-4-ethyl-8-fluoro-4-hydroxy-11-((5-hydroxypentyl)amino)-9-methyl-1,12-dihydro-14H-pyrano[3′,4′:6,7]indolizino[1,2-b]quinoline-3,14(4H)-dione] | 20 nM | 17.2 nM | 377 nM | 28.7 nM | –
6 | CC[C@@]1(O)C(=O)OCc2c1cc1n(c2=O)Cc2c-1nc1cc3c(cc1c2NCCCCO)OCO3 [STI-F18, (S)-7-ethyl-7-hydroxy-14-((4-hydroxybutyl)amino)-10,13-dihydro-11H-[1,3]dioxolo[4,5-g]pyrano[3′,4′:6,7]indolizino[1,2-b]quinoline-8,11(7H)-dione] | – | – | – | – | IC50 ([1]; Homo sapiens, SK-OV-3, 72 h): 44.6 nM; IC50 ([2]; Homo sapiens, HCT-116, 72 h): 58.7 nM; IC50 ([3]; Homo sapiens, A549, 72 h): 454 nM; IC50 ([4]; Homo sapiens, NCI-H441, 72 h): 42 nM

Reference: patent US20260102507A1, “CAMPTOTHECIN DERIVATIVE FOR TREATING OR PREVENTING CANCER AND ANTIBODY-DRUG CONJUGATE THEREOF” (CHENGDU BRILLIANT PHARMACEUTICAL CO., LTD., priority 2023, published 2026)
